Values quoted from earlier work, collected in patent US20110004098A1, “ESTER IMAGING AGENTS” (priority 2008, published 2011).

Tested on: bladder carcinoma in situ
Details: cystoscopy with Hexvix, as opposed to 58% with white light cystoscopy

CCCCCCOC(=O)CCC(=O)CN.Cl [Hexvix, n-hexyl 5-aminolevulinate hydrochloride]
sensitivity of detecting bladder carcinoma in situ: 97%
